From US6436987B1, “Crystalline forms of (3S-trans)-2-[3,4-dihydro-4-hydroxy-3-(phenylmethyl)-2H-1-benzopyran-7-yl]-4-(trifluoromethyl)-benzoic acid” (Pfizer Inc., priority 2000, dated 2002) come the findings set out here.

What all share (format): physicochemical
Data set [1] can be described thus: equilibrium solubility determined during polymorph screen. The conditions noted are these: thermodynamic from solid; pH 7 water, four days at ambient temperature. The protocol: Using the microscopy methods described by Haleblaine and McCrone, Journal of Pharmaceutical Sciences, 58(8), pp. 911-929, 1969, a polymorph screen was conducted for the ethylene diamine (mono) salt of compound (I). No polymorphs were observed. A more extensive polymorph screen was run on the (mono) salt of compound (I′), involving 31 isolations, and again no polymorphs were observed. During the polymorph screen, an equilibrium solubility for the ethylene diamine (mono) salt of compound (I) was determined. After maintaining a sample for four days at ambient temperature, an equilibrium solubility value of approximately 4 mg/ml was determined, in pH 7 water. Additionally, the ethylene diamine (bis) salt was not observed in these studies.

Data set [2] in a line: comparison of forms: solubility in aqueous solvents. The conditions noted are these: polymorph B versus polymorph A; salt versus all other known forms.
Data set [3] in a line: salt screen for suitable crystalline properties. To be noted: salt of compound (I′). The protocol: Again using compound (I′), the following salt species were prepared and screened for the presence of suitable crystalline properties. […] The olamine salt was recovered as an oil. The meglumine salt material was determined to be amorphous. Both the benzathine (mono) and benzathine (bis) salts were also determined to be amorphous. Crystalline solids could also not be prepared for the L-arginine, L-lysine, calcium, potassium, and magnesium salts.

The nature of data set [4]: conversion (bridging) to polymorph A in solvent. How it is done: Polymorph B crystals may also be converted back to polymorph A crystals by placement in a solvent in which the B form is very slightly soluble, such as n-hexanes. Over a period of time (for example, no more than 18 hours) crystals of polymorph A will develop. Prolonged granulation (for example 18 hours) even when conducted at 5° C. will also effect conversion to polymorph A.
(§1) Examples of suitable solvent include ethyl acetate: hexanes 1:5.

Data set [5] can be described thus: equilibration of forms under ambient conditions (relative energy). The text has this: As evaluated by equilibration of the polymorphs (A and B) under ambient conditions, polyporph A is the lower energy form.
Data set [6] is described as follows: solid-state storage stability in sealed dark glass bottle under nitrogen. The conditions noted are these: sealed dark colored glass bottle, under nitrogen gas.
Excerpt: However, polymorph B may be stably stored in solid form. If placed in a sealed dark colored glass bottle, under nitrogen gas, polymorph B crystals are stable for at least 6 weeks.
as §1

Data set [7] can be described thus: comparison of forms: thermal stability.
Data set [8] can be described thus: hygroscopicity: weight gain at 87% RH. To be noted: for weight gain (hygroscopicity): after 72 hours at 87% RH. The protocol:
Polymorph A has an X-ray powder diffraction pattern that is unique to the form as previously described (FIG. 1). Upon microscopic examination, crystals appear as small needles and aggregates thereof, but which are not reliably distinguished from those of polymorph B (FIG. 2). By fusion microscopy, polymorph A is determined to commence melting at about 144° C., with no recrystallization noted upon further temperature increases. […] (FIG. 5).

≈ marks a conversion by molar mass, not a printed value. Counter-ions that a name gives are not always drawn.

For the compound `O=C(O)c1ccc(C(F)(F)F)cc1-c1ccc2c(c1)OC[C@H](Cc1ccccc1)[C@H]2O` [(3S-trans)-2-[3,4-dihydro-4-hydroxy-3-(phenylmethyl)-2H-1-benzopyran-7-yl]-4-(trifluoromethyl)-benzoic acid], the thermodynamic solubility at 4 days in data set [1] is ~4 mg/mL (≈ 9.34 mM). The “solubility in aqueous solvents relative to other forms” value in data set [2] is recorded as “greater solubility in aqeuous solvents”.
As for `O=C(O)c1ccc(C(F)(F)F)cc1-c1ccc2c(c1)OC[C@@H](Cc1ccccc1)[C@@H]2O` [sodium salt, (3R-trans)-2-[3,4-dihydro-4-hydroxy-3-(phenylmethyl)-2H-1-benzopyran-7-yl]-4-(trifluoromethyl)-benzioc acid], the hygroscopicity of salt entry in data set [3] is given as “hygroscopic, becoming an oil”.
Turning to `O=C(O)c1ccc(C(F)(F)F)cc1-c1ccc2c(c1)OC[C@H](Cc1ccccc1)[C@H]2O` [monohydrate, (3S-trans)-2-[3,4-dihydro-4-hydroxy-3-(phenylmethyl)-2H-1-benzopyran-7-yl]-4-(trifluoromethyl)-benzoic acid], the “bridging to polymorph A” value in data set [4] (hexanes alone) is listed as “no bridging occurs”; in data set [4] (solvents with some minimal solubility, e.g. ethyl acetate: hexanes 1:5), “readily bridges to polymorph A”. The “relative energy of the crystal form” value in data set [5] is “higher in energy than polymorph A”. For the same compound, the “time stable in solid form” value in data set [6] was “at least six weeks”.
With `O=C(O)c1ccc(C(F)(F)F)cc1-c1ccc2c(c1)OC[C@H](Cc1ccccc1)[C@H]2O` [Polymorph A, (3S-trans)-2-[3,4-dihydro-4-hydroxy-3-(phenylmethyl)-2H-1-benzopyran-7-yl]-4-(trifluoromethyl)-benzoic acid], the “relative energy of the crystal form” value in data set [5] is “lowest energy form”. Further, in data set [7], the “thermal stability relative to all other known forms of compound (I)” value was “greater thermal stability”. In addition, the hygroscopicity in words result in data set [8] (87% RH, ambient temperature) is recorded as “substantially non-hygroscopic”. Also, the “weight gain (hygroscopicity)” value in data set [8] (again at ambient temperature (second value stated)) turned out to be 0.36%; in data set [8] (ambient temperature (first value stated)), 0.2%.
As to `O=C(O)c1ccc(C(F)(F)F)cc1-c1ccc2c(c1)OC[C@H](Cc1ccccc1)[C@H]2O` [polymorph B, (3S-trans)-2-[3,4-dihydro-4-hydroxy-3-(phenylmethyl)-2H-1-benzopyran-7-yl]-4-(trifluoromethyl)-benzoic acid], the “time for conversion to polymorph A” value in data set [4] (in a solvent in which the B form is very slightly soluble, such as n-hexanes) was “no more than 18 hours”. In addition, the “solubility in aqueous solvents relative to other forms” value in data set [2] is recorded as “greater solubility in aqeuous solvents”. In addition, in data set [6], the “time stable in solid form” value was “at least 6 weeks”.

One may read the solubility (thermodynamic) as solubility found after equilibrating the solid with the medium.
